Laboratory results reported in ChEMBL document CHEMBL4602704, “Discovery and Optimization of Glucose Uptake Inhibitors” (J Med Chem, 2020).
Converted amounts (≈) assume the structure as drawn.

Legend:
in vitro [1] = conditions: human, Caco-2
in vitro [2] = conditions: human, Caco-2; remark: listed apart in the source
in vivo [3] = conditions: CD-1, mouse, brain, po, 100 mg/kg
in vivo [4] = conditions: rat, iv, 10 mg/kg
in vivo [5] = conditions: mouse, po, 30 mg/kg
in vitro [6] = conditions: human, liver microsomes
in vivo [7] = conditions: rat
in vitro [8] = conditions: mouse, plasma
in vivo [9] = conditions: rat, po, 30 mg/kg
in vitro [10] = conditions: rat, liver microsomes
in vivo [11] = conditions: mouse, po, 30 mg/kg; remark: listed apart in the source
in vivo [12] = conditions: rat, iv, 10 mg/kg; remark: listed apart in the source
in vivo [13] = conditions: mouse, iv, 10 mg/kg
physchem [14] = conditions: phosphate buffered saline, pH 6.8
in vivo [15] = conditions: dog, po, 10 mg/kg
in vivo [16] = conditions: mouse, brain and plasma, po, 30 mg/kg
in vivo [17] = conditions: mouse, iv, 10 mg/kg; remark: listed apart in the source
in vitro [18] = conditions: dog, liver microsomes
in vivo [19] = conditions: mouse
physchem [20] = conditions: phosphate buffered saline, pH 4.5
in vitro [21] = conditions: mouse, liver microsomes
in vivo [22] = conditions: rat, po, 30 mg/kg; remark: listed apart in the source
physchem [23] = conditions: phosphate buffered saline, pH 2
in vivo [24] = conditions: mouse, po, 30 mg/kg; remark: listed apart in the source
in vivo [25] = conditions: dog, po, 10 mg/kg; remark: listed apart in the source
in vivo [26] = conditions: rat, po, 30 mg/kg; remark: listed apart in the source
[27] = Apparent permeability in human Caco2 cells; type: ADME, cell-based; conditions: Caco-2

Structure (SMILES): CC(C)(C)NC(=O)COc1cccc(-c2nc3c(c(Nc4ccc(-c5cn[nH]c5)cc4)n2)CN(C2CCC2)CC3)c1
- Papp A→B at 5 µM (in vitro [1]): 4.58 ×10⁻⁶ cm/s
- Papp B→A at 5 µM (in vitro [2]): 6.09 ×10⁻⁶ cm/s
- Kp at 1 h (in vivo [3]): 0.1

Structure (SMILES): CC1(NC(=O)COc2cccc(-c3nc4c(c(Nc5ccc(-c6cn[nH]c6)cc5)n3)CN(C3CCC3)CC4)c2)CC1
- clearance (in vivo [4]): 37 mL/min/kg
- bioavailability (in vivo [5]): 45.4%
- Papp A→B at 5 µM (in vitro [1]): 11.2 ×10⁻⁶ cm/s
- half-life (in vitro [6]): 1.93 h
- half-life (in vivo [7]): 2.59 h
- remaining at 18 h (in vitro [8]): > 95%
- Cmax (in vivo [9]): 1680 ng/mL
- half-life at 2 µM (in vitro [10]): 1.05 h
- Papp B→A at 5 µM (in vitro [2]): 4.33 ×10⁻⁶ cm/s
- Cmax (in vivo [11]): 2520 ng/mL
- Vd (in vivo [12]): 4.51 L/kg
- clearance (in vivo [13]): 40 mL/min/kg
- solubility (physchem [14]): 1.4 µM (≈ 0.77 µg/mL)
- bioavailability (in vivo [15]): 29%
- Kp at 2 h (in vivo [16]): 0.05
- Vd (in vivo [17]): 1.7 L/kg
- half-life (in vitro [18]): 0.967 h
- half-life (in vivo [19]): 0.785 h
- solubility (physchem [20]): 256 µM (≈ 141 µg/mL)
- half-life at 2 µM (in vitro [21]): 1.17 h
- bioavailability (in vivo [22]): 49.4%
- solubility (physchem [23]): 291 µM (≈ 160 µg/mL)
- AUC (in vivo [24]): 5890 ng·h/mL
- bioavailability (in vivo [25]): 19%
- AUC (in vivo [26]): 6810 ng·h/mL
- Kp at 1 h (in vivo [3]): 0.05

Structure (SMILES): CCOc1ccc2nc(-c3cccc(OCC(=O)NC(C)C)c3)nc(Nc3ccc(-c4cn[nH]c4)cc3)c2c1
- Papp [27]: 2 ×10⁻⁶ cm/s
- solubility (physchem [14]): 0.03 µM (≈ 0.0157 µg/mL)
- solubility (physchem [20]): 0.01 µM (≈ 0.00523 µg/mL)
- solubility (physchem [23]): 3.36 µM (≈ 1.76 µg/mL)
